Holding throughout (type): binding
Experiment [1] concerns the target T1, human HER2 (23-652) (Homo sapiens, UniProt P04626). The experiment can be described thus: Surface plasmon resonance (SPR) for assessment of peptide affinity, human HER2. Details: towards human HER2 (23-652) and mouse HER2 (23-653); made in house. Put shortly: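 Binding kinetics fitted from sensorgrams with 280 s peptide association then 3000 s dissociation (30 uL/min), using HER2 (23-652) either directly immobilized (SA/CM5) or anti-Fc-captured; 3 M magnesium chloride used for regeneration.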
Background: Surface plasmon resonance follows binding to a sensor surface in real time, without labels.

The target in experiment [2] is T2, mouse HER2 (23-653) (Mus musculus, UniProt P70424). The experiment can be described thus: Surface plasmon resonance (SPR) for assessment of peptide affinity, mouse HER2. Details: mouse HER2 (23-653) using a Cy5 labeled peptide as a probe; made in house. An excerpt: Each protein was immobilized either onto a SA sensorchip (Cytiva, BR-1005-31) or CM5 sensorchip (Cytiva, BR-1005-30) to a density of 800-2000 RU.

Experiment [3] concerns the target T1, human HER2 (23-652). Description: TR-FRET competition assay for peptide potency, human HER2. Details: towards human HER2 (23-652) and mouse HER2 (23-653); made in house; host or cells: mammalian cells. (TR-FRET usually uses a lanthanide donor and a delayed reading to cut background.)
For experiment [4], the target named is T2, mouse HER2 (23-653). Description: TR-FRET competition assay for peptide potency, mouse HER2. Details: mouse HER2 (23-653) using a Cy5 labeled peptide as a probe; made in house; host or cells: mammalian cells.
[5] abbreviates: SPR, human HER2 extracellular domain, 25° C., 1:1 binding model, read-out: huHER2-SPR-ONC KD.
Where [6] appears, read: SPR, mouse HER2 extracellular domain, 25° C., 1:1 binding model, read-out: moHER2-SPR-ONC KD.
Setting [7] is: TR-FRET competition with Cy5 labeled peptide probe, 0.1 nM mouse HER2, 24 h incubation, read-out: moHER2 TR-FRET IC50.

Structures are written as SMILES. Counter-ions that a name gives are not always drawn. Like-named read-outs stand apart in the source and are kept apart here. Starred links: 1 amine or outer side, 2 acyl side, 3 side chain; linkers in the order of their positions; H or OH if unused. Positions of bridges follow the written chain, without caps; N, C: chain ends. Non-standard residues stand in square brackets, D forms with d. Residues, ends and D or L forms follow the SMILES beside them. Trp(5-OH) = N[C@@H](Cc1c[nH]c2ccc(O)cc12)C(=O)O; NMePhe(4-F) = CN[C@@H](Cc1ccc(F)cc1)C(=O)O; X1 = O=C([C@H](Cc1cnn2ccccc12)N[*:1])[*:2]; NMehPhe = CN[C@@H](CCc1ccccc1)C(=O)O; NMeE = CN[C@@H](CCC(=O)O)C(=O)O; Aad = N[C@@H](CCCC(=O)O)C(=O)O; Gly(cPr) = N[C@H](C(=O)O)C1CC1; NMeD = CN[C@@H](CC(=O)O)C(=O)O; NMeDap = CN[C@@H](CN)C(=O)O; 3Amb = NCc1cccc(C(=O)O)c1; NMeS = CN[C@@H](CO)C(=O)O; Dap = NC[C@H](N)C(=O)O

What is called Kd is a measure of binding affinity in units of concentration. What is called IC50 is the concentration that gives 50% inhibition. For `CC(=O)N[C@H]1CCC(=O)NC[C@@H](C(=O)N(C)[C@@H](Cc2ccc(F)cc2)C(N)=O)N(C)C(=O)[C@H](C2CC2)NC(=O)[C@H](Cc2cnn3ccccc23)NC(=O)[C@H](Cc2c[nH]c3ccc(O)cc23)NC(=O)[C@H](CO)N(C)C(=O)[C@H](CCc2ccccc2)N(C)C(=O)[C@H](CO)NC(=O)[C@H](Cc2ccc(O)cc2)NC1=O` [Example A21, (3S,6S,9S,12S,15S,18S,21S,24S,27S)-27-acetamido-N-((S)-1-amino-3-(4-fluorophenyl)-1-oxopropan-2-yl)-6-cyclopropyl-12-((5-hydroxy-1H-indol-3-yl)methyl)-24-(4-hydroxybenzyl)-15,21-bis(hydroxymethyl)-N,4,16,19-tetramethyl-5,8,11,14,17,20,23,26,30-nonaoxo-18-phenethyl-9-(pyrazolo[1,5-a]pyridin-3-ylmethyl)-1,4,7,10,13,16,19,22,25-nonaazacyclotriacontane-3-carboxamide] (Ac-EYS[NMehPhe][NMeS][Trp(5-OH)][X1][Gly(cPr)][NMeDap][NMePhe(4-F)]-NH2; lactam 1-9), the Kd in experiment [1] (setting [5]) and in experiment [2] (setting [6]) was over 6 µM throughout. The IC50 in experiment [3] (read-out: huHER2 TR-FRET IC50) and in experiment [4] (setting [7]) was over 1 µM throughout.

In the case of `CN1C(=O)[C@H](CO)NC(=O)[C@H](Cc2ccc(O)cc2)NC(=O)c2cccc(c2)CNC(=O)C[C@@H](C(=O)N(C)[C@@H](Cc2ccc(F)cc2)C(N)=O)N(C)C(=O)[C@H](C2CC2)NC(=O)[C@H](Cc2c[nH]c3ccccc23)NC(=O)[C@H](Cc2c[nH]c3ccc(O)cc23)NC(=O)[C@H](CO)N(C)C(=O)[C@@H]1CCc1ccccc1` [Example A24, (4S,7S,10S,13S,16S,19S,22S,25S)-19-((1H-indol-3-yl)methyl)-N-((S)-1-amino-3-(4-fluorophenyl)-1-oxopropan-2-yl)-22-cyclopropyl-16-((5-hydroxy-1H-indol-3-yl)methyl)-4-(4-hydroxybenzyl)-7,13-bis(hydroxymethyl)-N,9,12,24-tetramethyl-2,5,8,11,14,17,20,23,27-nonaoxo-10-phenethyl-3,6,9,12,15,18,21,24,28-nonaaza-1(1,3)-benzenacyclononacosaphane-25-carboxamide] ([3Amb]YS[NMehPhe][NMeS][Trp(5-OH)]W[Gly(cPr)][NMeD][NMePhe(4-F)]-NH2; lactam N-9), the Kd in experiment [1] (setting [5]) came to 2.81 µM; in experiment [2] (setting [6]), 5.08 µM. For the same compound, the IC50 in experiment [3] (read-out: huHER2 TR-FRET IC50) and in experiment [4] (setting [7]) was over 1 µM in each case.

For the compound `CC(=O)N[C@H]1CCC(=O)NC[C@@H](C(=O)N(C)[C@@H](Cc2ccc(F)cc2)C(N)=O)N(C)C(=O)[C@H](C2CC2)NC(=O)[C@H](Cc2c[nH]c3ccccc23)NC(=O)[C@H](Cc2c[nH]c3ccc(O)cc23)NC(=O)[C@H](CO)N(C)C(=O)[C@H](CCc2ccccc2)N(C)C(=O)[C@H](CCCC(=O)O)NC(=O)[C@H](Cc2ccc(O)cc2)NC1=O` [Example A27, 4-((2S,5S,8S,11S,14S,17S,20S,23S,29S)-17-((1H-indol-3-yl)methyl)-29-acetamido-23-(((S)-1-amino-3-(4-fluorophenyl)-1-oxopropan-2-yl)(methyl)carbamoyl)-20-cyclopropyl-14-((5-hydroxy-1H-indol-3-yl)methyl)-2-(4-hydroxybenzyl)-11-(hydroxymethyl)-7,10,22-trimethyl-3,6,9,12,15,18,21,26,30-nonaoxo-8-phenethyl-1,4,7,10,13,16,19,22,25-nonaazacyclotriacontan-5-yl)butanoic acid] (Ac-EY[Aad][NMehPhe][NMeS][Trp(5-OH)]W[Gly(cPr)][NMeDap][NMePhe(4-F)]-NH2; lactam 1-9), the Kd in experiment [1] (setting [5]) came out at 0.248 µM; in experiment [2] (setting [6]), 0.21 µM. Moreover, the results for the half-inhibitory concentration (IC50) in experiment [3] (read-out: huHER2 TR-FRET IC50) and in experiment [4] (setting [7]) were 0.391 µM and 0.627 µM, respectively.

As for `CC(=O)N[C@H]1CC(=O)NC[C@@H](C(=O)N(C)[C@@H](Cc2ccc(F)cc2)C(N)=O)N(C)C(=O)[C@H](C2CC2)NC(=O)[C@H](Cc2c[nH]c3ccccc23)NC(=O)[C@H](Cc2c[nH]c3ccc(O)cc23)NC(=O)[C@H](CO)N(C)C(=O)[C@H](CCc2ccccc2)N(C)C(=O)[C@H](CO)NC(=O)[C@H](Cc2ccc(O)cc2)NC1=O` [Example A28, (3S,6S,9S,12S,15S,18S,21S,24S,27S)-9-((1H-indol-3-yl)methyl)-27-acetamido-N-((S)-1-amino-3-(4-fluorophenyl)-1-oxopropan-2-yl)-6-cyclopropyl-12-((5-hydroxy-1H-indol-3-yl)methyl)-24-(4-hydroxybenzyl)-15,21-bis(hydroxymethyl)-N,4,16,19-tetramethyl-5,8,11,14,17,20,23,26,29-nonaoxo-18-phenethyl-1,4,7,10,13,16,19,22,25-nonaazacyclononacosane-3-carboxamide] (Ac-DYS[NMehPhe][NMeS][Trp(5-OH)]W[Gly(cPr)][NMeDap][NMePhe(4-F)]-NH2; lactam 1-9), the results for the dissociation constant Kd in experiment [1] (setting [5]) and in experiment [2] (setting [6]) were 0.309 µM and 0.421 µM, respectively. Further, the IC50 is 0.223 µM in experiment [3] (read-out: huHER2 TR-FRET IC50) and 0.413 µM in experiment [4] (setting [7]).

As to `CN1C(=O)[C@H](CO)NC(=O)[C@H](Cc2ccc(O)cc2)NC(=O)[C@@H](N)Cc2cccc(c2)CC(=O)NC[C@@H](C(=O)N(C)[C@@H](Cc2ccc(F)cc2)C(N)=O)N(C)C(=O)[C@H](C2CC2)NC(=O)[C@H](Cc2c[nH]c3ccccc23)NC(=O)[C@H](Cc2c[nH]c3ccc(O)cc23)NC(=O)[C@H](CO)N(C)C(=O)[C@@H]1CCc1ccccc1` [Example A31, (6S,9S,12S,15S,18S,21S,24S,27S,30S)-12-((1H-indol-3-yl)methyl)-30-amino-N—((S)-1-amino-3-(4-fluorophenyl)-1-oxopropan-2-yl)-9-cyclopropyl-15-((5-hydroxy-1H-indol-3-yl)methyl)-27-(4-hydroxybenzyl)-18,24-bis(hydroxymethyl)-N,7,19,22-tetramethyl-3,8,11,14,17,20,23,26,29-nonaoxo-21-phenethyl-4,7,10,13,16,19,22,25,28-nonaaza-1 (1,3)-benzenacyclohentriacontaphane-6-carboxamide TFA salt], the dissociation constant (Kd) in experiment [1] (setting [5]) came to 0.485 µM; in experiment [2] (setting [6]), 0.755 µM. The IC50 in experiment [3] (read-out: huHER2 TR-FRET IC50) was 0.844 µM; in experiment [4] (setting [7]), over 1 µM.

As to `CN1C(=O)[C@H](CO)NC(=O)[C@H](Cc2ccc(O)cc2)NC(=O)[C@@H](N)CNC(=O)CC[C@@H](C(=O)N(C)[C@@H](Cc2ccc(F)cc2)C(N)=O)N(C)C(=O)[C@H](C2CC2)NC(=O)[C@H](Cc2c[nH]c3ccccc23)NC(=O)[C@H](Cc2c[nH]c3ccc(O)cc23)NC(=O)[C@H](CO)N(C)C(=O)[C@@H]1CCc1ccccc1` [Example A34, (3S,6S,9S,12S,15S,18S,21S,24S,30S)-6-((1H-indol-3-yl)methyl)-24-amino-N-((S)-1-amino-3-(4-fluorophenyl)-1-oxopropan-2-yl)-3-cyclopropyl-9-((5-hydroxy-1H-indol-3-yl)methyl)-21-(4-hydroxybenzyl)-12,18-bis(hydroxymethyl)-N,1,13,16-tetramethyl-2,5,8,11,14,17,20,23,27-nonaoxo-15-phenethyl-1,4,7,10,13,16,19,22,26-nonaazacyclotriacontane-30-carboxamide TFA salt] (H-[Dap]YS[NMehPhe][NMeS][Trp(5-OH)]W[Gly(cPr)][NMeE][NMePhe(4-F)]-NH2; lactam 1-9), the equilibrium dissociation constant (Kd) was 0.068 µM in experiment [1] and 0.064 µM in experiment [2]. The IC50 in experiment [3] (huHER2 TR-FRET IC50, TR-FRET competition with Cy5 labeled peptide probe, 0.1 nM human HER2, 24 h incubation) was 0.158 µM; in experiment [3] (huHER2 TR-FRET IC50, recalculated value achieved after further repetition, value in parentheses (**): recalculated after further repetition), 0.118 µM; in experiment [4] (moHER2 TR-FRET IC50, TR-FRET competition with Cy5 labeled peptide probe, 0.1 nM mouse HER2, 24 h incubation) it was 0.296 µM; in experiment [4] (moHER2 TR-FRET IC50, recalculated value achieved after further repetition, value in parentheses (**): recalculated after further repetition), 0.175 µM.

Regarding `CN1C(=O)[C@H](CO)NC(=O)[C@H](Cc2ccc(O)cc2)NC(=O)[C@@H](N)CCC(=O)NC[C@@H](C(=O)N(C)[C@@H](Cc2ccc(F)cc2)C(N)=O)N(C)C(=O)[C@H](C2CC2)NC(=O)[C@H](Cc2c[nH]c3ccccc23)NC(=O)[C@H](Cc2c[nH]c3ccc(O)cc23)NC(=O)[C@H](CO)N(C)C(=O)[C@@H]1CCc1ccccc1` [Example A35, (3S,6S,9S,12S,15S,18S,21S,24S,27S)-9-((1H-indol-3-yl)methyl)-27-amino-N—((S)-1-amino-3-(4-fluorophenyl)-1-oxopropan-2-yl)-6-cyclopropyl-12-((5-hydroxy-1H-indol-3-yl)methyl)-24-(4-hydroxybenzyl)-15,21-bis(hydroxymethyl)-N,4,16,19-tetramethyl-5,8,11,14,17,20,23,26,30-nonaoxo-18-phenethyl-1,4,7,10,13,16,19,22,25-nonaazacyclotriacontane-3-carboxamide TFA 5 salt], the Kd in experiment [1] (setting [5]) was found to be 0.037 µM; in experiment [2] (setting [6]), 0.066 µM. The half-inhibitory concentration (IC50) is 0.053 µM in experiment [3] (read-out: huHER2 TR-FRET IC50) and 0.122 µM in experiment [4] (setting [7]).

These data come from patent US20250332300A1 (priority 2024, published 2025).
